Test: GVS characterization of Form III
Type: physicochemical
Details: at 90% RH

With `Cc1cc(C)cc([C@@H]2CCCN2Cc2ccc(Oc3ccc(C(N)=O)cc3F)cc2)c1` [Form III] as the compound, how does the GVS max uptake read?
Its GVS max uptake is 0.4% max uptake at 90% RH.

From patent US12201610B2, “Compositions comprising aticaprant” (Janssen Pharmaceuticals, Inc., priority 2022, dated 2025)
